Source: patent US20250289787A1, “HERBICIDAL 2-OXO-NICOTINIC ACID DERIVATIVES” (SYNGENTA CROP PROTECTION AG, priority 2022, published 2025)

Columns and labels:
Format in all cases: in vivo
Parameters in all cases: key: 5=81-100%; 4=61-80%; 3=41-60%; 2=21-40%; 1=1-20%; 0=no damage to the plant; -=not tested
Setaria faberi (SETFA) [1] = experiment: Post-emergence test, herbicidal damage; settings: sprayed after 8 days cultivation, 1000 g/ha unless otherwise stated, evaluated after 13 days, five-point scale
Procedure, shortened: (§1)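 Herbicidal effect is expressed as a score from 0 (no damage) to 5 (81–100% damage), assessed 13 days after spraying. Compound at 1000 g/ha in acetone/water with 0.5% Tween 20 is applied to pots kept at 24 °C/16 °C, 14 h photoperiod.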

[2] = tested on: Ipomoea hederacea (IPOHE); experiment: Post-emergence test, herbicidal damage; settings: sprayed after 8 days cultivation, 1000 g/ha unless otherwise stated, evaluated after 13 days, five-point scale
Procedure, shortened: as §1

[3] = tested on: Amaranthus retoflexus (AMARE); experiment: Post-emergence test, herbicidal damage; settings: sprayed after 8 days cultivation, 1000 g/ha unless otherwise stated, evaluated after 13 days, five-point scale
Procedure, shortened: as §1

[4] = tested on: Echinochloa crus-galli (ECHCG); experiment: Post-emergence test, herbicidal damage; settings: sprayed after 8 days cultivation, 1000 g/ha unless otherwise stated, evaluated after 13 days, five-point scale
Procedure, shortened: as §1

Zea mays (ZEAMX) [5] = experiment: Post-emergence test, herbicidal damage; settings: sprayed after 8 days cultivation, 1000 g/ha unless otherwise stated, evaluated after 13 days, five-point scale
Procedure, shortened: as §1

[6] = tested on: Amaranthus palmeri (AMAPA); experiment: Post-emergence test, herbicidal damage; settings: sprayed after 8 days cultivation, 1000 g/ha unless otherwise stated, evaluated after 13 days, five-point scale
Procedure, shortened: as §1

Zea mays (ZEAMX) [7] = experiment: Pre-emergence test, herbicidal damage; settings: 1000 g/ha unless otherwise stated, evaluated after 13 days, five-point scale
[8] = tested on: Amaranthus retoflexus (AMARE); experiment: Pre-emergence test, herbicidal damage; settings: 1000 g/ha unless otherwise stated, evaluated after 13 days, five-point scale
[9] = tested on: Amaranthus palmeri (AMAPA); experiment: Pre-emergence test, herbicidal damage; settings: 1000 g/ha unless otherwise stated, evaluated after 13 days, five-point scale
[10] = tested on: Ipomoea hederacea (IPOHE); experiment: Pre-emergence test, herbicidal damage; settings: 1000 g/ha unless otherwise stated, evaluated after 13 days, five-point scale
[11] = tested on: Echinochloa crus-galli (ECHCG); experiment: Pre-emergence test, herbicidal damage; settings: 1000 g/ha unless otherwise stated, evaluated after 13 days, five-point scale
Setaria faberi (SETFA) [12] = experiment: Pre-emergence test, herbicidal damage; settings: 1000 g/ha unless otherwise stated, evaluated after 13 days, five-point scale

Row | SMILES | percentage damage caused to the plant, SEFTA (Setaria faberi (SETFA) [1]) | percentage damage caused to the plant, IPOHE [2] | percentage damage caused to the plant, AMARE [3] | percentage damage caused to the plant, ECHCG [4] | percentage damage caused to the plant, ZEAMX (Zea mays (ZEAMX) [5]) | percentage damage caused to the plant, AMAPA [6] | percentage damage caused to the plant, ZEAMX (Zea mays (ZEAMX) [7]) | percentage damage caused to the plant, AMARE [8] | percentage damage caused to the plant, AMAPA [9] | percentage damage caused to the plant, IPOHE [10] | percentage damage caused to the plant, ECHCG [11] | percentage damage caused to the plant, SEFTA (Setaria faberi (SETFA) [12])
1 | Cc1cc(-c2ccc(Cl)c(Cl)c2)c(C(=O)O)c(=O)n1-c1ncc(Cl)cc1F [Compound 18, 1-(5-chloro-3-fluoro-2-pyridyl)-4-(3,4-dichlorophenyl)-6-methyl-2-oxo-pyridine-3-carboxylic acid] | 0 | 1 (1=1-20%) | 0 | 1 (1=1-20%) | 1 (1=1-20%) | 1 (1=1-20%) | 0 | 0 | 0 | 0 | 0 | 0
2 | Cc1cc(-c2ccc(Cl)c(Cl)c2)c(C(=O)O)c(=O)n1-c1ncc(Cl)cc1Cl [Compound 19, 4-(3,4-dichlorophenyl)-1-(3,5-dichloro-2-pyridyl)-6-methyl-2-oxo-pyridine-3-carboxylic acid] | 1 (1=1-20%) | 1 (1=1-20%) | 0 | 1 (1=1-20%) | 1 (1=1-20%) | 1 (1=1-20%) | 0 | 0 | 0 | 0 | 0 | 0
3 | Cc1c(Cl)c(-c2ccc(Cl)c(Cl)c2)c(C(=O)O)c(=O)n1-c1ccc(F)cc1 [Compound 20, 5-chloro-4-(3,4-dichlorophenyl)-1-(4-fluorophenyl)-6-methyl-2-oxo-pyridine-3-carboxylic acid] | 4 (4=61-80%) | 2 (2=21-40%) | 4 (4=61-80%) | 2 (2=21-40%) | 4 (4=61-80%) | 5 (5=81-100%) | 0 | 4 (4=61-80%) | 5 (5=81-100%) | 1 (1=1-20%) | 1 (1=1-20%) | 2 (2=21-40%)
4 | Cc1cc(-c2ccc(Cl)c(Cl)c2)c(C(=O)O)c(=O)n1Cc1ccc(Cl)cc1F [Compound 22, 1-[(4-chloro-2-fluoro-phenyl)methyl]-4-(3,4-dichlorophenyl)-6-methyl-2-oxo-pyridine-3-carboxylic acid] | 1 (1=1-20%) | 1 (1=1-20%) | 3 (3=41-60%) | 0 | 1 (1=1-20%) | 3 (3=41-60%) | 1 (1=1-20%) | 1 (1=1-20%) | 1 (1=1-20%) | 0 | 1 (1=1-20%) | 1 (1=1-20%)
5 | Cc1c(Cl)c(-c2ccc(Cl)c(Cl)c2)c(C(=O)O)c(=O)n1-c1cccc(C(F)(F)F)c1F [Compound 23, 5-chloro-4-(3,4-dichlorophenyl)-1-[2-fluoro-3-(trifluoromethyl)phenyl]-6-methyl-2-oxo-pyridine-3-carboxylic acid] | 1 (1=1-20%) | 1 (1=1-20%) | 4 (4=61-80%) | 1 (1=1-20%) | 1 (1=1-20%) | 4 (4=61-80%) | 0 | 4 (4=61-80%) | 4 (4=61-80%) | 0 | 1 (1=1-20%) | 1 (1=1-20%)
6 | Cc1c(Cl)c(-c2ccc(Cl)c(Cl)c2)c(C(=O)O)c(=O)n1-c1ccc(Cl)cc1F [Compound 25, 5-chloro-1-(4-chloro-2-fluoro-phenyl)-4-(3,4-dichlorophenyl)-6-methyl-2-oxo-pyridine-3-carboxylic acid] | 1 (1=1-20%) | 1 (1=1-20%) | 3 (3=41-60%) | 1 (1=1-20%) | 1 (1=1-20%) | 3 (3=41-60%) | 1 (1=1-20%) | 4 (4=61-80%) | 4 (4=61-80%) | 1 (1=1-20%) | 2 (2=21-40%) | 2 (2=21-40%)
7 | Cc1c(-c2ccc(Cl)c(Cl)c2)c(C(=O)O)c(=O)n(-c2ccc(Cl)cc2F)c1C [Compound 26, 1-(4-chloro-2-fluoro-phenyl)-4-(3,4-dichlorophenyl)-5,6-dimethyl-2-oxo-pyridine-3-carboxylic acid] | 1 (1=1-20%) | 0 | 3 (3=41-60%) | 1 (1=1-20%) | 1 (1=1-20%) | 3 (3=41-60%) | 1 (1=1-20%) | 3 (3=41-60%) | 3 (3=41-60%) | 1 (1=1-20%) | 0 | 1 (1=1-20%)
8 | Cc1c(Cl)c(-c2ccc(Cl)c(Cl)c2)c(C(=O)O)c(=O)n1Cc1ccc(C(F)(F)F)cc1F [Compound 28, 5-chloro-4-(3,4-dichlorophenyl)-1-[[2-fluoro-4-(trifluoromethyl)phenyl]methyl]-6-methyl-2-oxo-pyridine-3-carboxylic acid] | 1 (1=1-20%) | 1 (1=1-20%) | 3 (3=41-60%) | 0 | 1 (1=1-20%) | 4 (4=61-80%) | 1 (1=1-20%) | 3 (3=41-60%) | 4 (4=61-80%) | 1 (1=1-20%) | 1 (1=1-20%) | 0
9 | Cc1cc(-c2ccc(Cl)c(Cl)c2)c(C(=O)O)c(=O)n1Cc1ccc(F)cc1F [Compound 31, 4-(3,4-dichlorophenyl)-1-[(2,4-difluorophenyl)methyl]-6-methyl-2-oxo-pyridine-3-carboxylic acid] | 0 | 0 | 1 (1=1-20%) | 1 (1=1-20%) | 0 | 1 (1=1-20%) | 0 | 1 (1=1-20%) | 1 (1=1-20%) | 0 | 0 | 1 (1=1-20%)
